The source of these data is patent EP4800015A1, “AZABICYCLO DERIVATIVE AND PREPARATION METHOD THEREFOR, AND USE” (Zhejiang Hisun Pharmaceutical Co., Ltd., priority 2023, dated 2025).

By IC50 is commonly meant the midpoint of a concentration-inhibition curve.

The target in experiment [1] is T1, recombinant human WRN (Homo sapiens, UniProt Q14191).
T1 construct: purchased BPS 101264
As to the kind of experiment: Inhibition of WRN enzyme activity (ATPase), ADP-Glo Kinase Assay. Format: biochemical. The note with it: WRN protein 5 nM, Flap 0.1 nM, ATP 30 µM; read-out: IC50. In outline: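 Recombinant human WRN (5 nM) was preincubated with compound (1000–0.004 nM) for 15 min at room temperature. Flap26 5'-flap DNA (0.1 nM) and 30 µM ATP were then added for 10 min in Tris pH 7.5, MgCl2, NaCl, BSA, Pluronic buffer. ADP was detected by ADP-Glo luminescence, and IC50 was obtained by nonlinear regression versus a 0.1% DMSO control.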
(In general: ADP-Glo turns the ADP formed in a reaction into a luminescent signal.)

Experiment [2] relates to RL95-2 cells. As to the kind of experiment: Inhibition of RL95-2 cell proliferation (CellTiter-Glo). Conditions: Homo sapiens; RL95-2 cells (MSI-H), 120 hours. The format is cell-based. As for the experimental part: The following method was used to determine the effect of the compounds of the present disclosure on RL95-2 cell proliferation. RL95-2 cells (MSI-H cells) were purchased from Cell Resource Center of Shanghai Institutes for Biological Sciences, Chinese Academy of Sciences, and cultured in DMEM/F12 medium (Gibco, catalog No. A4192001) containing 10% fetal bovine serum, 100 U penicillin, and 100 µg/mL streptomycin. Cell viability was determined by CellTiter-Glo® Luminescent Cell Viability Assay kit (Promega, catalog No. G7573).
The experiment was performed according to the steps of the kit manual, which is briefly described as follows: test compounds were first dissolved in DMSO to prepare 10 mM stock solutions, and then diluted with medium to prepare test samples, with final compound concentrations ranging from 10000 nM to 1.52 nM. Cells in logarithmic growth phase were seeded into 96-well cell culture plates at a density of 500 cells per well and cultured overnight at 37 °C in a 5% CO2 incubator, and then test compounds were added and cultivation continued for 120 hours. After the cultivation was completed, 50 µL of CellTiter-Glo detection reagent was added to each well, shaken for 5 minutes, and then left to stand for 10 minutes. Luminescence values of each well were read on a microplate reader using Luminescence mode. The percentage inhibition at each concentration point was calculated by comparison with the control group (0.1% DMSO), and then IC50 values for the compounds for inhibition of cell proliferation were obtained using nonlinear regression analysis of compound concentration logarithm versus inhibition rate in GraphPad Prism 9 software, as shown in Table 3.
The IC50 value results of the compounds of the present disclosure are represented by A, wherein "A" indicates 1 nM < IC50 ≤ 100 nM. Table 3 IC50 data for inhibition of RL95-2 cell proliferation by the compounds of the present disclosure

T1 sequence (Q14191 whole entry): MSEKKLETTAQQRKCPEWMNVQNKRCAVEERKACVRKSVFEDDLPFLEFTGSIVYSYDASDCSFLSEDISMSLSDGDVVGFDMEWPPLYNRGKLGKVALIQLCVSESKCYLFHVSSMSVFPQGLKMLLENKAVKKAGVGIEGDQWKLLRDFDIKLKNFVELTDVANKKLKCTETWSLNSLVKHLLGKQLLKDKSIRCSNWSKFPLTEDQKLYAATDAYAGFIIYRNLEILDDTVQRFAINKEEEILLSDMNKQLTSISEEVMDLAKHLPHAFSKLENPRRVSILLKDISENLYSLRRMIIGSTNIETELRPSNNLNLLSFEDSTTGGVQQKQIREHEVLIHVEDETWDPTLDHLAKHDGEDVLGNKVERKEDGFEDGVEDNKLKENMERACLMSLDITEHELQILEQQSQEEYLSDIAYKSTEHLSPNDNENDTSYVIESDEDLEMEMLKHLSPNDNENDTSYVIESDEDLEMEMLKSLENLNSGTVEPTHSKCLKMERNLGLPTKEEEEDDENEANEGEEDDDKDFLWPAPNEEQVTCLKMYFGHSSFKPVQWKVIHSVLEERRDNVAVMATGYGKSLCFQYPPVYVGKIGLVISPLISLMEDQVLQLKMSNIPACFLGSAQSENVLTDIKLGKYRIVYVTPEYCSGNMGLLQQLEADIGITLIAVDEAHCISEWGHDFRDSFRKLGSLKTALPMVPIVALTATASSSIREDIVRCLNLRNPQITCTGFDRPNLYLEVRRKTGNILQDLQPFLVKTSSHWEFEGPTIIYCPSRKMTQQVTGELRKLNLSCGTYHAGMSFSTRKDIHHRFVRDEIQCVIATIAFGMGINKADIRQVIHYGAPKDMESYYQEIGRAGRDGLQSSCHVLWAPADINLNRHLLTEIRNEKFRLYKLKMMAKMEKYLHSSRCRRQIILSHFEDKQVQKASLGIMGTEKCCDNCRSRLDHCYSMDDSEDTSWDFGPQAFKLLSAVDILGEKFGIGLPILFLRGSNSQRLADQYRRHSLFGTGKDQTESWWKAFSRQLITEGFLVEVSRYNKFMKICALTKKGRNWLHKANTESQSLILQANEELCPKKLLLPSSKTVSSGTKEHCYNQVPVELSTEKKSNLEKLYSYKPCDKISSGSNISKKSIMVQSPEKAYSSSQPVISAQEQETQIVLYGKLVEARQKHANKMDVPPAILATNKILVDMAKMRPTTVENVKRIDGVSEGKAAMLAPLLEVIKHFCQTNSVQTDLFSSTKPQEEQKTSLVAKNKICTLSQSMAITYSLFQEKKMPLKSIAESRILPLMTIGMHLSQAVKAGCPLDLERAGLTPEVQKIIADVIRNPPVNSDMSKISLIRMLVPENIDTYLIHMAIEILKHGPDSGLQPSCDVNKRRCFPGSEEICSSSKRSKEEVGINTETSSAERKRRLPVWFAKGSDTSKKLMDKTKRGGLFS

In the case of `CCc1c(N2CCN(C(=O)c3ncnc(C)c3O)CC2)c(=O)n2nc(-c3ccc4ccoc4c3)nc2n1CC(=O)Nc1ccc(S(F)(F)(F)(F)F)cc1` [Example 77, 2-(2-(benzofuran-6-yl)-5-ethyl-6-(4-(5-hydroxy-6-methylpyrimidine-4-carbonyl)piperazin-1-yl)-7-oxo-[1,2,4]triazolo[1,5-a]pyrimidin-4(7H)-yl)-N-(4-(pentafluoro-λ^6-sulfaneyl)phenyl)acetamide], the IC50 in experiment [1] and in experiment [2] was 1 to 100 nM throughout.

On to `CCc1c(N2CCN(C(=O)c3ncnc(C)c3O)CC2)c(=O)n2nc(C3=CC4(CCC4)C3)nc2n1CC(=O)Nc1ccc(C(F)(F)F)cc1Cl` [Example 50, N-(2-chloro-4-(trifluoromethyl)phenyl)-2-(5-ethyl-6-(4-(5-hydroxy-6-methylpyrimidine-4-carbonyl)piperazin-1-yl)-7-oxo-2-(spiro[3.3]hept-1-en-2-yl)-[1,2,4]triazolo[1,5-a]pyrimidin-4(7H)-yl)ac etamide], for which the IC50 in experiment [1] lay in the range of 1 to 100 nM. On the same count and under the same terms, for `CCc1c(N2CCN(C(=O)c3ncnc(C)c3O)CC2)c(=O)n2nc(C3=CCC4(CC3)CC4)nc2n1CC(=O)Nc1ccc(C(F)(F)F)cc1Cl` [Example 64, N-(2-Chloro-4-(trifluoromethyl)phenyl)-2-(5-ethyl-6-(4-(5-hydroxy-6-methylpyrimidine-4-carbonyl)piperazin-1-yl)-7-oxo-2-(spiro[2.5]oct-5-en-6-yl)-[1,2,4]triazolo[1,5-a]pyrimidin-4(7H)-yl)ac etamide] the value was 1 to 100 nM; for `CCc1nc2n(CC(=O)Nc3ccc(C(F)(F)F)cc3Cl)c(CC)c(N3CCN(C(=O)c4ncnc(C)c4O)CC3)c(=O)n2n1` [Example 28, N-(2-chloro-4-(trifluoromethyl)phenyl)-2-(2,5-diethyl-6-(4-(5-hydroxy-6-methylpyrimidine-4-carbonyl)piperazin-1-yl)-7-oxo-[1,2,4]triazolo[1,5-a]pyrimidin-4(7H)-yl)acetamide], 1 to 100 nM; for `CCc1c(N2CCN(C(=O)c3ncnc(C)c3O)CC2)c(=O)n2nc(C3=CC4(C3)CC(C(N)=O)C4)nc2n1CC(=O)Nc1ccc(C(F)(F)F)cc1Cl` (stereo not drawn) [Example 119, 6-(4-(2-((2-chloro-4-(trifluoromethyl)phenyl)amino)-2-oxoethyl)-5-ethyl-6-(4-(5-hydroxy-6-methylpyrimidine-4-carbonyl)piperazin-1-yl)-7-oxo-4,7-dihydro-[1,2,4]triazolo[1,5-a]pyrimidin-2-yl)spiro[3.3]hept-5-ene-2-carboxamide], 1 to 100 nM. Same read-out and setting: for `[2H]C([2H])([2H])Sc1ccc(NC(=O)Cn2c(CC)c(N3CCN(C(=O)c4ncnc(C)c4O)CC3)c(=O)n3nc(C4=CCCCOC4)nc23)c(Cl)c1` [Example 166, N-(2-chloro-4-((methyl-d3)thio)phenyl)-2-(5-ethyl-6-(4-(5-hydroxy-6-methylpyrimidine-4-carbonyl)piperazin-1-yl)-7-oxo-2-(2,5,6,7-tetrahydrooxepin-3-yl)-[1,2,4]triazolo[1,5-a]pyrimidin-4(7H )-yl)acetamide] the value was 1 to 100 nM; for `CCc1c(N2CCCN(C(=O)c3ncnc(C)c3O)CC2)c(=O)n2nc(C3=CCCCCC3)nc2n1CC(=O)Nc1ccc(S(F)(F)(F)(F)F)cc1` [Example 94, 2-(2-(cyclohept-1-en-1-yl)-5-ethyl-6-(4-(5-hydroxy-6-methylpyrimidine-4-carbonyl)-1,4-diazepan-1-yl)-7-oxo-[1,2,4]triazolo[1,5-a]pyrimidin-4(7H)-yl)-N-(4-(pentafluoro-λ^6-sulfaneyl)phenyl)a cetamide], 1 to 100 nM. For `CCc1c(N2CCN(C(=O)c3ncnc(C)c3O)CC2)c(=O)n2nc(C#CC3CC3)nc2n1CC(=O)Nc1ccc(C(F)(F)F)cc1Cl` [Example 173, N-(2-chloro-4-(trifluoromethyl)phenyl)-2-(2-(cyclopropylethynyl)-5-ethyl-6-(4-(5-hydroxy-6-methylpyrimidine-4-carbonyl)piperazin-1-yl)-7-oxo-[1,2,4]triazolo[1,5-a]pyrimidin-4(7H)-yl)acetamide], the IC50 in experiment [1] was 1 to 100 nM.

As for `CCc1c(N2CCN(C(=O)c3ncnc(C)c3O)CC2)c(=O)n2nc(/C=C/C(=O)N(C)C)nc2n1CC(=O)Nc1ccc(C(F)(F)F)cc1Cl` [Example 182, (E)-3-(4-(2-((2-chloro-4-(trifluoromethyl)phenyl)amino)-2-oxoethyl)-5-ethyl-6-(4-(5-hydroxy-6-methylpyrimidine-4-carbonyl)piperazin-1-yl)-7-oxo-4,7-dihydro-[1,2,4]triazolo[1,5-a]pyrimidin-2-yl)-N,N-dimethylacrylamide], the IC50 in experiment [1] lay in the range of 1 to 100 nM. For the compound `CCc1c(N2CCN(C(=O)c3ncnc(C)c3O)CC2)c(=O)n2nc(N3CC4(CCOCC4)C3)nc2n1CC(=O)Nc1ccc(C(F)(F)F)cc1Cl` [Example 8, N-(2-chloro-4-(trifluoromethyl)phenyl)-2-(5-ethyl-6-(4-(5-hydroxy-6-methylpyrimidine-4-carbonyl)piperazin-1-yl)-7-oxo-2-(7-oxa-2-azaspiro[3.5]nonan-2-yl)-[1,2,4]triazolo[1,5-a]pyrimidin-4(7 H)-yl)acetamide], the IC50 in experiment [1] was 1 to 100 nM. Still for that read-out and setting: as for `CCc1c(N2CCN(C(=O)c3ncnc(C)c3O)CC2)c(=O)n2nc(C(C)=C3CCC3)nc2n1CC(=O)Nc1ccc(S(F)(F)(F)(F)F)cc1` [Example 61, 2-(2-(1-cyclobutylideneethyl)-5-ethyl-6-(4-(5-hydroxy-6-methylpyrimidine-4-carbonyl)piperazin-1-yl)-7-oxo-[1,2,4]triazolo[1,5-a]pyrimidin-4(7H)-yl)-N-(4-(pentafluoro-λ^6-sulfaneyl)phenyl)ace tamide], the figure is 1 to 100 nM; as for `CCc1c(N2CCN(C(=O)c3ccncc3O)CC2)c(=O)n2nc(C3=CCCCCC3)nc2n1CC(=O)Nc1ccc(C(F)(F)F)cc1OC` [Example 43, 2-(2-(cyclohept-1-en-1-yl)-5-ethyl-6-(4-(3-hydroxyisonicotinoyl)piperazin-1-yl)-7-oxo-[1,2,4]triazolo[1,5-a]pyrimidin-4(7H)-yl)-N-(2-methoxy-4-(trifluoromethyl)phenyl)acetamide], 1 to 100 nM. For `CCc1c(N2CCN(C(=O)c3ncnc(C)c3O)CC2)c(=O)n2nc(-c3ccc4c(c3)CCO4)nc2n1CC(=O)Nc1ccc(SC(F)F)cc1Cl` [Example 148, N-(2-chloro-4-((difluoromethyl)thio)phenyl)-2-(2-(2,3-dihydrobenzofuran-5-yl)-5-ethyl-6-(4-(5-hydroxy-6-methylpyrimidine-4-carbonyl)piperazin-1-yl)-7-oxo-[1,2,4]triazolo[1,5-a]pyrimidin-4(7 H)-yl)acetamide], in experiment [1], the IC50 was 1 to 100 nM. On the same count and under the same terms, as for `CCc1c(N2CCCN(C(=O)c3ncnc(C)c3O)CC2)c(=O)n2nc(-c3ccc4c(c3)CCO4)nc2n1CC(=O)Nc1ccc(C(F)(F)F)cc1Cl` [Example 107, N-(2-chloro-4-(trifluoromethyl)phenyl)-2-(2-(2,3-dihydrobenzofuran-5-yl)-5-ethyl-6-(4-(5-hydroxy-6-methylpyrimidine-4-carbonyl)-1,4-diazepan-1-yl)-7-oxo-[1,2,4]triazolo[1,5-a]pyrimidin-4(7 H)-yl)acetamide], the figure is 1 to 100 nM; as for `CCc1c(N2CCN(C(=O)c3ccncc3O)CC2)c(=O)n2nc(C3=CCCCCC3)nc2n1CC(=O)Nc1ccc(C(F)(F)F)cc1F` [Example 44, 2-(2-(cyclohept-1-en-1-yl)-5-ethyl-6-(4-(3-hydroxyisonicotinoyl)piperazin-1-yl)-7-oxo-[1,2,4]triazolo[1,5-a]pyrimidin-4(7H)-yl)-N-(2-fluoro-4-(trifluoromethyl)phenyl)acetamide], 1 to 100 nM. Still for that read-out and setting: for `CCc1c(N2CCN(C(=O)c3ncnc(C)c3O)CC2)c(=O)n2nc(C3=CC4CCC3C4)nc2n1CC(=O)Nc1ccc(C(F)(F)F)cc1Cl` (stereo not drawn) [Example 23, 2-(2-(bicyclo[2.2.1]hept-2-en-2-yl)-5-ethyl-6-(4-(5-hydroxy-6-methylpyrimidine-4-carbonyl)piperazin-1-yl)-7-oxo-[1,2,4]triazolo[1,5-a]pyrimidin-4(7H)-yl)-N-(2-chloro-4-(trifluoromethyl)phenyl)acetamide] the value was 1 to 100 nM; for `CCc1c(N2CCN(C(=O)c3ccncc3O)CC2)c(=O)n2nc(C3=CC4CC(=O)CC4C3)nc2n1CC(=O)Nc1ccc(C(F)(F)F)cc1Cl` (stereo not drawn) [Example 14, N-(2-chloro-4-(trifluoromethyl)phenyl)-2-(5-ethyl-6-(4-(3-hydroxyisonicotinoyl)piperazin-1-yl)-7-oxo-2-(5-oxo-1,3a,4,5,6,6a-hexahydropentalen-2-yl)-[1,2,4]triazolo[1,5-a]pyrimidin-4(7H)-yl)a cetamide], 1 to 100 nM.
